Results: the NIST ThermoML archive (doi:10.1021/je700260f)

Details: 303.14 K, Liquid, Vibrating tube method

FC(C(F)(F)F)C(F)(F)F [1,1,1,2,3,3,3-heptafluoropropane]
Details | mass density [kg/m3]
14797 kPa | 1456.7
14835 kPa | 1456.8
17693 kPa | 1469.8
21659 kPa | 1486
21693 kPa | 1486.3
21731 kPa | 1486.4
21764 kPa | 1486.4
21797 kPa | 1486.6
21835 kPa | 1486.9
21869 kPa | 1486.9
21906 kPa | 1486.9
21939 kPa | 1487.2
21972 kPa | 1487.3
22005 kPa | 1487.5
22039 kPa | 1487.5
22067 kPa | 1487.7
22096 kPa | 1487.7
22140 kPa | 1487.9
22178 kPa | 1488.1
22208 kPa | 1488.1
22251 kPa | 1488.4
22280 kPa | 1488.4
22361 kPa | 1488.8
22404 kPa | 1488.9
23559 kPa | 1493.4
23594 kPa | 1493.4
23621 kPa | 1493.5
23651 kPa | 1493.8
23681 kPa | 1493.8
26459 kPa | 1504
26487 kPa | 1503.9
26573 kPa | 1504.3
26602 kPa | 1504.5
26627 kPa | 1504.5
26661 kPa | 1504.7
26685 kPa | 1504.6
27097 kPa | 1506
27130 kPa | 1506.1
27159 kPa | 1506.3
27188 kPa | 1506.5
27217 kPa | 1506.5
27398 kPa | 1507.2
27427 kPa | 1507.2
27494 kPa | 1507.5
27528 kPa | 1507.5
27562 kPa | 1507.7
27605 kPa | 1507.8
27634 kPa | 1507.9
27671 kPa | 1508
27705 kPa | 1508.1
27735 kPa | 1508.3
27769 kPa | 1508.4
27803 kPa | 1508.5
27840 kPa | 1508.4
27861 kPa | 1508.6
27887 kPa | 1508.9
27917 kPa | 1508.9
27946 kPa | 1509
27976 kPa | 1509.1
28006 kPa | 1509.2
28040 kPa | 1509.3
28065 kPa | 1509.5
28095 kPa | 1509.5
28120 kPa | 1509.6
28158 kPa | 1509.6
28184 kPa | 1509.9
28206 kPa | 1510
28241 kPa | 1510
28271 kPa | 1510.1
28300 kPa | 1510.2
28330 kPa | 1510.4
28355 kPa | 1510.5
28394 kPa | 1510.6
31947 kPa | 1522.2
31984 kPa | 1522.4
32012 kPa | 1522.5
32053 kPa | 1522.5
32086 kPa | 1522.6
32123 kPa | 1522.8
32155 kPa | 1522.9
32187 kPa | 1522.9
32215 kPa | 1523
32251 kPa | 1523.2
32280 kPa | 1523.2
32322 kPa | 1523.4
32345 kPa | 1523.3
32382 kPa | 1523.4
32418 kPa | 1523.7
32449 kPa | 1523.8
32481 kPa | 1523.9
32513 kPa | 1524
32542 kPa | 1524.1
32574 kPa | 1524.1
32603 kPa | 1524.3
32646 kPa | 1524.3
32674 kPa | 1524.4
32713 kPa | 1524.6
32736 kPa | 1524.6
32764 kPa | 1524.8
32792 kPa | 1524.9
32830 kPa | 1524.9
32858 kPa | 1525.1
